Results published in PMC10000267, “ALA‐A2 Is a Novel Anticancer Peptide Inspired by Alpha‐Lactalbumin: A Discovery from a Computational Peptide Library, In Silico Anticancer Peptide Screening and In Vitro Experimental Validation” (Global Challenges, 2023).
Residues, ends and D or L forms follow the SMILES beside them.

System: A549 lung adenocarcinoma cells
Settings: A549, 200 µM, 24 h; SWATH; n = 9 per group
Description: In brief, A549 lung adenocarcinoma cells were seeded at a density of 1 × 10^5 cells/well in a 24‐well plate. After overnight incubation, the media were changed with fresh media with or without 200 µM ALA‐A2 and incubated at 37 °C in 5%CO2 for 24 h. The cells were washed twice with PBS before lysis with Laemmli lysis buffer (62.5 mM Tris‐HCl, pH 6.8, 10% v/v glycerol, 2% w/v SDS, and 2.5% v/v beta‐mercaptoethanol). Total protein was quantified using the Bradford protein assay (Bio‐Rad, Hercules, USA). 10 µg of protein was resolved by 12% SDS–PAGE before staining with Coomassie brilliant blue G‐250, and the gel was cut into small pieces for in‐gel tryptic digestion. An amount of peptide sample corresponding to 2.5 µg of total protein was resolved in an Eksigent nanoLC ultra nanoflow high performance liquid chromatography in tandem with a TripleTOF 6600+ mass spectrometer (ABSciex, Toronto, Canada) set for information‐dependent acquisition (IDA) and DIA modes. The peptides were loaded onto a C18 column trap (Nano Trap RP‐1, 3 µm 120 Å, 10 mm × 0.075 mm; Phenomenex, CA, USA) at a flow rate of 3 µL min^−1 of 0.1% formic acid in water for 10 min to desalt and concentrate the sample, which was then resolved by HPLC using a stationary phase of a C18 analytical column (bioZen Peptide Polar C18 nanocolumn, 75 µm × 15 cm, particle size 3 µm, 120 Å; Phenomenex) with mobile phase gradients at a flow rate of 300 nL min^−1 of 3–30% acetonitrile/0.1% formic acid for 60 min, 30–40% acetonitrile/0.1% formic acid for 10 min, 40–80% acetonitrile/0.1% formic acid for 2 min, 80% acetonitrile/0.1% formic acid for 6 min, 80–3% acetonitrile/0.1% formic acid for 2 min, and 3% acetonitrile/0.1% formic acid for 25 min. The eluate was ionized and sprayed into the mass spectrometer using OptiFlow Turbo V Source (Sciex). Ion source gas 1, ion source gas 2, and curtain gas were set at 19, 0, and 25 vendor arbitrary units, respectively. The interface heater temperature was 150 °C and ion spray voltage was 3.3 kV.
Each cycle performed one time of flight (TOF) scan (250 ms accumulation time, 350–1250 m/z window with a charge state of +2) followed by IDA of the 100 most intense ions, while the minimum MS signal was set to 150 counts. The MS/MS scan was operated in high sensitivity mode with 50 ms accumulation time and 50 ppm mass tolerance. Former MS/MS candidate ions were excluded for a period of 12 s after their first occurrence to reduce the redundancy of identified peptides. DIA mode was performed in a range of 350–1500 m/z using a predefined mass window of 7‐m/z with an overlap of 1‐m/z for 157 transmissible windows. MS scan was set at 2044 cycles, where each cycle performed one TOF‐MS scan type (50 ms accumulation time across 100–1500 precursor mass range) acquired in every cycle for a total cycle time of 3.08 s. MS spectra of 100–1500 m/z were collected with an accumulation time of 96 ms per SWATH window width. Resolution for MS1 was 35 000 and SWATH‐MS2 scan was 30 000. Rolling collision energy mode with collision energy spread of 15 eV was applied. The IDA and DIA data (.wiff) were recorded by Analyst‐TF v.1.8 software (ABSciex).
A total of 18 wiff files of IDA experiments (two groups; three biological replicates per group; three technical replicates per biological sample) were combined and searched using Protein Pilot v.5.0.2.0 software (ABSciex) against the Swiss‐Prot database (UniProtKB 2022_01) Homo sapiens (20385 proteins in database) with the searching parameters as follows; alkylation on cysteine by iodoacetamide, trypsin enzymatic digestion, one missed cleavage allowed, monoisotopic mass, and 1% false discovery rate.

In the case of CC(C)C[C@H](NC(=O)[C@@H](N)CCCCN)C(=O)N[C@@H](Cc1c[nH]c2ccccc12)C(=O)N[C@@H](CS)C(=O)N[C@@H](CCCCN)C(=O)N[C@@H](CO)C(=O)N[C@@H](CO)C(=O)N[C@@H](CCC(N)=O)C(=O)N[C@H](C(=O)N1CCC[C@H]1C(=O)N[C@@H](CCC(N)=O)C(=O)N[C@@H](CO)C(=O)N[C@@H](CCCNC(=N)N)C(=O)O)C(C)C [ALA‐A2] (H-KLWCKSSQVPQSR-OH), the “Fold‐change [treated/ untreated]: 40S ribosomal protein SA (RSSA, P08865)” value is reported as 0.25, the “Fold‐change [treated/ untreated]: 60S ribosomal protein L6 (RL6, Q02878)” value is reported as 2.87 and the “Fold‐change [treated/ untreated]: Actin, cytoplasmic 2 (ACTG, P63261)” value is reported as 0.09. The “Fold‐change [treated/ untreated]: Aldo‐keto reductase family 1 member B10 (AK1BA, O60218)” value was 0.29, the “Fold‐change [treated/ untreated]: Annexin A4 (ANXA4, P09525)” value was 2.98 and the “Fold‐change [treated/ untreated]: Annexin A7 (ANXA7, P20073)” value was 3.29. The “Fold‐change [treated/ untreated]: Chloride intracellular channel protein 1 (CLIC1, O00299)” value was 3.02, the “Fold‐change [treated/ untreated]: Elongation factor 1‐alpha‐like 3 (EF1A3, Q5VTE0)” value was 0.15 and the “Fold‐change [treated/ untreated]: Elongation factor 1‐gamma (EF1G, P26641)” value was 0.31. The “Fold‐change [treated/ untreated]: Endoplasmin (ENPL, P14625)” value was 0.38, the “Fold‐change [treated/ untreated]: Glyceraldehyde‐3‐phosphate dehydrogenase (G3P, P04406)” value was 0.32 and the “Fold‐change [treated/ untreated]: Heat shock 70 kDa protein 8 (HSPA8, P11142)” value was 0.25. For the same compound, the “Fold‐change [treated/ untreated]: Heat shock protein HSP90 alpha (HSP90AA1, P07900)” value was 0.26, the “Fold‐change [treated/ untreated]: Heat shock protein HSP90 beta (HSP90AB1, P08238)” value was 0.40 and the “Fold‐change [treated/ untreated]: Heterogeneous nuclear ribonucleoprotein A/B (ROAA, Q99729)” value was 2.35. The “Fold‐change [treated/ untreated]: Heterogeneous nuclear ribonucleoproteins A2/B1 (ROA2, P22626)” value was 0.25, the “Fold‐change [treated/ untreated]: Histone H1.3 (H13, P16402)” value was 0.32 and the “Fold‐change [treated/ untreated]: Histone H2A type 2‐A (H2A2A, Q6FI13)” value was 0.48. The “Fold‐change [treated/ untreated]: Histone H4 (H4, P62805)” value was 0.26, the “Fold‐change [treated/ untreated]: Hsp70‐binding protein 1 (HPBP1, Q9NZL4)” value was 0.48 and the “Fold‐change [treated/ untreated]: Importin‐5 (IPO5, O00410)” value was 2.22. The “Fold‐change [treated/ untreated]: Junction plakoglobin (PLAK, P14923)” value was 2.05, the “Fold‐change [treated/ untreated]: Keratin, type I cytoskeletal 18 (K1C18, P05783)” value was 0.35 and the “Fold‐change [treated/ untreated]: Keratin, type I cytoskeletal 19 (K1C19, P08727)” value was 0.34. For the same compound, the “Fold‐change [treated/ untreated]: Leucine‐rich PPR motif‐containing protein (LPPRC, P42704)” value was 2.06, the “Fold‐change [treated/ untreated]: Neurofibromin (NF1, P21359)” value was 0.07 and the “Fold‐change [treated/ untreated]: Peroxiredoxin‐1 (PRDX1, Q06830)” value was 0.26. The “Fold‐change [treated/ untreated]: Pyruvate kinase PKM (KPYM, P14618)” value was 0.43, the “Fold‐change [treated/ untreated]: RNA‐binding protein Raly (RALY, Q9UKM9)” value was 3.57 and the “Fold‐change [treated/ untreated]: Serine/arginine‐rich splicing factor 3 (SRSF3, P84103)” value was 0.33. For the same compound, the “Fold‐change [treated/ untreated]: TAR DNA‐binding protein 43 (TADBP, Q13148)” value was 4.07, the “Fold‐change [treated/ untreated]: Threonine‐tRNA ligase 1 (SYTC, P26639)” value was 2.61 and the “Fold‐change [treated/ untreated]: Transaldolase (TALDO, P37837)” value was 0.43. The “Fold‐change [treated/ untreated]: Transketolase (TKT, P29401)” value was 0.35, the “Fold‐change [treated/ untreated]: Tubulin beta chain (TBB5, P07437)” value was 0.27 and the “Fold‐change [treated/ untreated]: T‐complex protein 1 subunit delta (TCPD, P50991)” value was 2.39. For the same compound, the “Fold‐change [treated/ untreated]: T‐complex protein 1 subunit gamma (TCPG, P49368)” value was 0.46 and the “Fold‐change [treated/ untreated]: Ubiquitin‐60S ribosomal protein L40 (UBA52, P62987)” value was 0.41.
